This experiment addresses T1, GLP-1 Receptor (Homo sapiens, UniProt P43220).
T1 construct: host or cells: HEK293/GLP1R/CRE-LUC (HEK293/CRE-Luc stably expressing the GLP-1 receptor)
Put plainly: GLP-1R agonist cAMP stimulation assay (HEK293/GLP1R/CRE-LUC cells, Cisbio cAMP dynamic 2 kit).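 Further: compounds tested in half-log serial dilution, cAMP detected with cAMP-d2 and anti-cAMP cryptate antibody reagents after 1 h at room temperature.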 The format is cell-based. Conditions: HEK293/CRE-Luc cell line stably expressing the GLP-1 Receptor; 1000 cells/well; 30 min at 37° C.; 0.5 mM IBMX, 0.1% BSA; read-out: GLP1R cAMP Stimulation DR: EC50.

T1 sequence (P43220 24-463, species assumed): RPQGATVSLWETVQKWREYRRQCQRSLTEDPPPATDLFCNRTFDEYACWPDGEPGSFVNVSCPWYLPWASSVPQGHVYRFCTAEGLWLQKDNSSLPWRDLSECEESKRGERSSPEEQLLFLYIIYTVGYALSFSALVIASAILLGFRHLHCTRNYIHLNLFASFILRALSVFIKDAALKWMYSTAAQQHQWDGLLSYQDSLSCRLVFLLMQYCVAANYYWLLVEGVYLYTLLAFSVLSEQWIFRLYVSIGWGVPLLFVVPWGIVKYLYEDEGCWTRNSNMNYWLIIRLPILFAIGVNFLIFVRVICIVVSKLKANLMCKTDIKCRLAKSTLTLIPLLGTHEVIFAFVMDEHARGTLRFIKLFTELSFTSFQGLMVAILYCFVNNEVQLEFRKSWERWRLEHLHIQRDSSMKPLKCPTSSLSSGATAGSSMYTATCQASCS

In the case of `COc1cccc(Cn2c(CCC(=O)O)cnc2CN2CCC(c3cccc4c3OC(C)(c3ccc(Cl)cc3F)O4)CC2)c1` (stereo not drawn) [Compound 243, 3-(2-((4-(2-(4-chloro-2-fluorophenyl)-2-methylbenzo[d][1,3]dioxol-4-yl)piperidin-1-yl)methyl)-1-(3-methoxybenzyl)-1H-imidazol-5-yl)propanoic acid], the EC50 came out at 0.87 nM.
For `CCn1cncc1Cn1c(CCC(=O)O)cnc1CN1CCC(c2cccc(OCc3ccc(Cl)cc3F)n2)CC1` [Compound 244, 3-(2-((4-(6-((4-chloro-2-fluorobenzyl)oxy)pyridin-2-yl)piperidin-1-yl)methyl)-1-((1-ethyl-1H-imidazol-5-yl)methyl)-1H-imidazol-5-yl)propanoic acid], the EC50 amounted to 0.023 nM.
Under `CCn1cncc1Cn1c(CCC(=O)O)cnc1CN1CCC(c2cccc3c2OC[C@@H](c2ccc(Cl)cc2)O3)CC1` [Compound 245, (R)-3-(2-((4-(2-(4-chlorophenyl)-2,3-dihydrobenzo [b][1,4]dioxin-5-yl)piperidin-1-yl)methyl)-1-((1-ethyl-1H-imidazol-5-yl)methyl)-1H-imidazol-5-yl)propanoic acid] stands 0.15 nM.
Under `CCn1cncc1Cn1c(CCC(=O)O)nnc1CN1CCC(c2cccc3c2OC[C@@H](c2ccc(Cl)cc2)O3)CC1` [Compound 246, (R)-3-(5-((4-(2-(4-chlorophenyl)-2,3-dihydrobenzo [b][1,4]dioxin-5-yl)piperidin-1-yl)methyl)-4-((1-ethyl-1H-imidazol-5-yl)methyl)-4H-1,2,4-triazol-3-yl)propanoic acid] stands 0.38 nM; under `Cn1c(C2CCC(C(=O)O)C2)cnc1CN1CCC(c2cccc3c2OC(C)(c2ccc(Cl)cc2F)O3)CC1` (stereo not drawn) [Compound 247, 3-(2-((4-(2-(4-chloro-2-fluorophenyl)-2-methylbenzo[d][1,3]dioxol-4-yl)piperidin-1-yl)methyl)-1-methyl-1H-imidazol-5-yl)cyclopentane-1-carboxylic acid], 310 nM.
Turning to `O=C(O)C1CC1c1cnc(CN2CCC(c3cccc4c3OC[C@@H](c3ccc(Cl)cc3)O4)CC2)n1C[C@@H]1CCO1` (stereo partly drawn) [Compound 248, 2-(2-((4-((R)-2-(4-chlorophenyl)-2,3-dihydrobenzo[b][1,4]dioxin-5-yl)piperidin-1-yl)methyl)-1-(((S)-oxetan-2-yl)methyl)-1H-imidazol-5-yl)cyclopropane-1-carboxylic acid], the EC50 came out at 35 nM.
As for `O=c1[nH]c(-c2cnc(CN3CCC(c4cccc(OCc5ccc(Cl)cc5F)n4)CC3)n2C[C@@H]2CCO2)no1` [Compound 249a, (S)-3-(2-((4-(6-((4-chloro-2-fluorobenzyl)oxy)pyridin-2-yl)piperidin-1-yl)methyl)-1-(oxetan-2-ylmethyl)-1H-imidazol-5-yl)-1,2,4-oxadiazol-5(4H)-one], the EC50 is 3.7 nM.
In the case of `Cn1c(-c2cc(=O)[nH]o2)cnc1CN1CCC(c2cccc(OCc3ccc(Cl)cc3F)n2)CC1` [Compound 250, 5-(2-((4-(6-((4-chloro-2-fluorobenzyl)oxy)pyridin-2-yl)piperidin-1-yl)methyl)-1-methyl-1H-imidazol-5-yl)isoxazol-3(2H)-one] it was 1.6 nM; in that of `COCCn1c(Cc2noc(=O)[nH]2)cnc1CN1CCC(c2cccc3c2OC(C)(c2ccc(Cl)cc2F)O3)CC1` (stereo not drawn) [Compound 251, 3-((2-((4-(2-(4-chloro-2-fluorophenyl)-2-methylbenzo[d][1,3]dioxol-4-yl)piperidin-1-yl)methyl)-1-(2-methoxyethyl)-1H-imidazol-5-yl)methyl)-1,2,4-oxadiazol-5(4H)-one], 13 nM.
For `Cc1cc(-c2noc(=O)[nH]2)cnc1CN1CCC(c2cccc3c2OC(C)(c2ccc(Cl)cc2F)O3)CC1` (stereo not drawn) [Compound 252, 3-(6-((4-(2-(4-chloro-2-fluorophenyl)-2-methylbenzo[d][1,3]dioxol-4-yl)piperidin-1-yl)methyl)-5-methylpyridin-3-yl)-1,2,4-oxadiazol-5(4H)-one], the EC50 was found to be 11 nM.
In the case of `Cc1cc(-c2nnn[nH]2)cnc1CN1CCC(c2cccc3c2OC(C)(c2ccc(Cl)cc2F)O3)CC1` (stereo not drawn) [Compound 253, 2-({4-[2-(4-chloro-2-fluorophenyl)-2-methyl-2H-1,3-benzodioxol-4-yl]piperidin-1-yl}methyl)-3-methyl-5-(1H-1,2,3,4-tetrazol-5-yl)pyridine] it was 4 nM; in that of `Cc1cc(-c2n[nH]c(=O)o2)cnc1CN1CCC(c2cccc3c2OC(C)(c2ccc(Cl)cc2F)O3)CC1` (stereo not drawn) [Compound 254, 5-[6-({4-[2-(4-chloro-2-fluorophenyl)-2-methyl-2H-1,3-benzodioxol-4-yl]piperidin-1-yl}methyl)-5-methylpyridin-3-yl]-2,3-dihydro-1,3,4-oxadiazol-2-one], 10 nM.
For `Cc1cc(-c2nnc(C(F)(F)F)[nH]2)cnc1CN1CCC(c2cccc3c2OC(C)(c2ccc(Cl)cc2F)O3)CC1` (stereo not drawn) [Compound 255, 2-({4-[2-(4-chloro-2-fluorophenyl)-2-methyl-2H-1,3-benzodioxol-4-yl]piperidin-1-yl}methyl)-3-methyl-5-[5-(trifluoromethyl)-4H-1,2,4-triazol-3-yl]pyridine], the EC50 worked out at 8.3 nM.
Regarding `COCCc1cc(-c2nnn[nH]2)cnc1CN1CCC(c2cccc3c2OC(C)(c2ccc(Cl)cc2F)O3)CC1` (stereo not drawn) [Compound 256, 2-({4-[2-(4-chloro-2-fluorophenyl)-2-methyl-2H-1,3-benzodioxol-4-yl]piperidin-1-yl}methyl)-3-(2-methoxyethyl)-5-(1H-1,2,3,4-tetrazol-5-yl)pyridine], the EC50 came out at 5 nM.
Consider `Cc1cc(-c2nnc(C(F)F)[nH]2)cnc1CN1CCC(c2cccc3c2OC(C)(c2ccc(Cl)cc2F)O3)CC1` (stereo not drawn) [Compound 257, 2-({4-[2-(4-chloro-2-fluorophenyl)-2-methyl-2H-1,3-benzodioxol-4-yl]piperidin-1-yl}methyl)-5-[5-(difluoromethyl)-4H-1,2,4-triazol-3-yl]-3-methylpyridine], for which the EC50 came to 14 nM.
In the case of `C[C@]1(c2ccc(Cl)cc2F)Oc2cccc(C3CCN(Cc4ncc(-c5nnc(C(F)(F)F)[nH]5)cc4CC4(C#N)CC4)CC3)c2O1` [Compound 258, 1-{[2-({4-[(2S)-2-(4-chloro-2-fluorophenyl)-2-methyl-2H-1,3-benzodioxol-4-yl]piperidin-1-yl}methyl)-5-[5-(trifluoromethyl)-4H-1,2,4-triazol-3-yl]pyridin-3-yl]methyl}cyclopropane-1-carbonitrile] it was 0.0061 nM; in that of `COCCc1cc(-c2nnc(C(F)(F)F)[nH]2)cnc1CN1CCC(c2cccc3c2O[C@@](C)(c2ccc(Cl)cc2F)O3)CC1` [Compound 259, 2-({4-[(2S)-2-(4-chloro-2-fluorophenyl)-2-methyl-2H-1,3-benzodioxol-4-yl]piperidin-1-yl}methyl)-3-(2-methoxyethyl)-5-[5-(trifluoromethyl)-4H-1,2,4-triazol-3-yl]pyridine], 0.53 nM.
Under `COCCc1cc(-c2nnc(C(F)(F)F)[nH]2)cnc1CN1CCC(c2cccc3c2O[C@@](C)(c2ccc(C#N)cc2F)O3)CC1` [Compound 260, 3-fluoro-4-[(2S)-4-(1-{[3-(2-methoxyethyl)-5-[5-(trifluoromethyl)-4H-1,2,4-triazol-3-yl]pyridin-2-yl]methyl}piperidin-4-yl)-2-methyl-2H-1,3-benzodioxol-2-yl]benzonitrile] stands 2.3 nM; under `COCCc1cc(-c2nnc(C(F)(F)F)[nH]2)cnc1CN1CCC(c2cccc3c2OC(C)(c2ccc(Cl)cc2)O3)CC1` (stereo not drawn) [Compound 261, 2-({4-[2-(4-chlorophenyl)-2-methyl-2H-1,3-benzodioxol-4-yl]piperidin-1-yl}methyl)-3-(2-methoxyethyl)-5-[5-(trifluoromethyl)-4H-1,2,4-triazol-3-yl]pyridine], 5.3 nM; under `Cc1cc(-c2nnc(C(F)(F)F)[nH]2)cnc1CN1CCC(c2cccc3c2OC(C)(c2ccc(F)cc2F)O3)CC1` (stereo not drawn) [Compound 262, 2-({4-[2-(2,4-difluorophenyl)-2-methyl-2H-1,3-benzodioxol-4-yl]piperidin-1-yl}methyl)-3-methyl-5-[5-(trifluoromethyl)-4H-1,2,4-triazol-3-yl]pyridine], 3 nM.
In the case of `Cc1cc(-c2nnc(C(F)(F)F)[nH]2)cnc1CN1CCC(c2cccc3c2OC(C)(c2ccc(F)cc2)O3)CC1` (stereo not drawn) [Compound 263, 2-({4-[2-(4-fluorophenyl)-2-methyl-2H-1,3-benzodioxol-4-yl]piperidin-1-yl}methyl)-3-methyl-5-[5-(trifluoromethyl)-4H-1,2,4-triazol-3-yl]pyridine] it was 6.8 nM; in that of `Cc1cc(-c2nnc(C(F)(F)F)[nH]2)cnc1CN1CCC(c2cccc3c2OC(C)(c2ccc(Cl)cn2)O3)CC1` (stereo not drawn) [Compound 264, 2-({4-[2-(5-chloropyridin-2-yl)-2-methyl-2H-1,3-benzodioxol-4-yl]piperidin-1-yl}methyl)-3-methyl-5-[5-(trifluoromethyl)-4H-1,2,4-triazol-3-yl]pyridine], 15 nM.
`Cc1cc(-c2nnc(C(F)(F)F)[nH]2)cnc1CN1CCC(c2cccc3c2OC(C)(c2ccc(Cl)cc2)O3)CC1` (stereo not drawn) [Compound 265, 2-({4-[2-(4-chlorophenyl)-2-methyl-2H-1,3-benzodioxol-4-yl]piperidin-1-yl}methyl)-3-methyl-5-[5-(trifluoromethyl)-4H-1,2,4-triazol-3-yl]pyridine]: the EC50 amounted to 4.5 nM.
As for `CC1(c2ccc(Cl)cc2F)Oc2cccc(C3CCN(Cc4ncc(-c5nnc(C(F)(F)F)[nH]5)cc4CC4CCCS4(=O)=O)CC3)c2O1` (stereo not drawn) [Compound 266, 2-{[2-({4-[2-(4-chloro-2-fluorophenyl)-2-methyl-2H-1,3-benzodioxol-4-yl]piperidin-1-yl}methyl)-5-[5-(trifluoromethyl)-4H-1,2,4-triazol-3-yl]pyridin-3-yl]methyl}-1λ^6-thiolane-1,1-dione], the 50% effective concentration (EC50) is 10 nM.

The values are drawn from patent US11897851B2, “Heterocyclic GLP-1 agonists” (Gasherbrum Bio, Inc., priority 2021, dated 2024).
